ChEMBL document CHEMBL4627354, “Antifungal polyketide derivatives from the endophytic fungus Aplosporella javeedii” (Bioorg Med Chem, 2020)
Values after ≈ are worked out from the molar mass of the structure shown. Active and inactive are the calls of the source. No cut-off for these calls is given here.

Key:
Enterococcus faecalis [1] = experiment: Antibacterial activity against Enterococcus faecalis ATCC 51299 by CLSI broth microdilution method; format: functional, organism-based
Enterococcus faecium [2] = experiment: Antibacterial activity against Enterococcus faecium ATCC 35667 by CLSI broth microdilution method; format: functional, organism-based
Saccharomyces cerevisiae [3] = experiment: Antifungal activity against Saccharomyces cerevisiae incubated for overnight by disc diffusion method; format: functional, organism-based
Bacillus subtilis = experiment: Antibacterial activity against Bacillus subtilis ATCC 169 by CLSI broth microdilution method; format: functional
Staphylococcus aureus [4] = experiment: Antibacterial activity against methicillin-resistant and […] Staphylococcus aureus ATCC 700699 by CLSI broth microdilution method; format: functional; conditions: Mu50 ATCC 700699
Candida albicans [5] = experiment: Antifungal activity against hyphae form of Candida albicans ATCC 24433 incubated for overnight by disc diffusion method; format: functional, organism-based
Enterococcus faecalis [6] = experiment: Antibacterial activity against Enterococcus faecalis ATCC 29212 by CLSI broth microdilution method; format: functional, organism-based
Staphylococcus aureus [7] = experiment: Antibacterial activity against Staphylococcus aureus ATCC 29213 by CLSI broth microdilution method; format: functional
Enterococcus faecium [8] = experiment: Antibacterial activity against Enterococcus faecium ATCC 700221 by CLSI broth microdilution method; format: functional, organism-based
[9] = system: Mycobacterium tuberculosis; experiment: Antibacterial activity against Mycobacterium tuberculosis H37Rv by CLSI broth microdilution method; format: functional, organism-based
Escherichia coli = experiment: Antibacterial activity against Escherichia coli ATCC 25922 by CLSI broth microdilution method; format: functional, organism-based
Candida albicans [10] = experiment: Fungicidal activity against hyphae form of Candida albicans ATCC 24433 assessed as reduction in bacterial viability at 474 uM measured after 6 hrs by time kill assay; format: functional, organism-based
Candida albicans [11] = experiment: Antifungal activity against hyphae form of Candida albicans ATCC 24433 assessed inhibition of visible microbe growth incubated for overnight by CLSI microbroth dilution method; format: functional
Candida albicans [12] = experiment: Fungicidal activity against hyphae form of Candida albicans ATCC 24433 assessed as log reduction in bacterial viability at 400 uM measured after 6 hrs by time kill assay; format: functional
Huh-7 = experiment: Cytotoxicity against human HuH7 cells assessed as reduction in cell viability up to 100 uM measured after 48 hrs by resazurin based fluorescence assay; conditions: huh-7, 48 h
[13] = Cytotoxicity against human CLS54 cells assessed as reduction in cell viability up to 100 uM measured after 48 hrs by resazurin based fluorescence assay
Saccharomyces cerevisiae [14] = experiment: Antifungal activity against Saccharomyces cerevisiae assessed as diameter of zone inhibition incubated for overnight by disc diffusion method; format: functional
Candida albicans [15] = experiment: Antifungal activity against hyphae form of Candida albicans ATCC 24433 assessed as diameter of zone inhibition at 1 mM incubated for overnight by disc diffusion method; format: functional; conditions: read-out: DIZ
THP-1 = experiment: Cytotoxicity against human THP1 cells assessed as reduction in cell viability up to 100 uM measured after 48 hrs by resazurin based fluorescence assay; conditions: thp-1, 48 h

For Cc1c(CCCCCO)cc(O)c(C=O)c1O, the Activity (Enterococcus faecalis [1]) was “inactive”, the Activity (Enterococcus faecium [2]) was “inactive” and the Activity (Saccharomyces cerevisiae [3]) was “inactive”. For the same compound, the Activity (Bacillus subtilis) was “inactive”, the Activity (Staphylococcus aureus [4]) was “inactive” and the Activity (Candida albicans [5]) was “inactive”. The Activity (Enterococcus faecalis [6]) was “inactive”, the Activity (Staphylococcus aureus [7]) was “inactive” and the Activity (Enterococcus faecium [8]) was “inactive”. For the same compound, the Activity [9] was “inactive” and the Activity (Escherichia coli) was “inactive”.

In the case of Cc1c(CCCCC(=O)O)cc(O)c(C=O)c1O, the Activity (Enterococcus faecalis [1]) is reported as “inactive”, the Activity (Enterococcus faecium [2]) is reported as “inactive” and the Activity (Saccharomyces cerevisiae [3]) is reported as “inactive”. For the same compound, the Activity (Bacillus subtilis) was “inactive”, the Activity (Staphylococcus aureus [4]) was “inactive” and the Activity (Candida albicans [5]) was “inactive”. The Activity (Enterococcus faecalis [6]) was “inactive”, the Activity (Staphylococcus aureus [7]) was “inactive” and the Activity (Enterococcus faecium [8]) was “inactive”. For the same compound, the Activity [9] was “inactive” and the Activity (Escherichia coli) was “inactive”.

For CN[C@H]1C[C@@H](N)[C@H](O)[C@@H](O[C@@H]2O[C@H](CO)[C@H](O)[C@@H]3O[C@@]4(O[C@H]23)O[C@H]([C@H](N)CO)[C@H](O)[C@H](O)[C@H]4O)[C@@H]1O, the Activity (Candida albicans [10]) was “Active”.

In the case of Cc1c(CCC(=O)O)cc(O)c(C=O)c1O, the Activity (Enterococcus faecalis [1]) is reported as “inactive”, the Activity (Enterococcus faecium [2]) is reported as “inactive” and the Activity (Saccharomyces cerevisiae [3]) is reported as “inactive”. For the same compound, the Activity (Bacillus subtilis) was “inactive”, the MIC (Staphylococcus aureus [4]) was 50 µM (≈ 11.2 µg/mL) and the Activity (Candida albicans [5]) was “inactive”. For the same compound, the Activity (Enterococcus faecalis [6]) was “inactive”, the MIC (Staphylococcus aureus [7]) was 25 µM (≈ 5.61 µg/mL) and the Activity (Enterococcus faecium [8]) was “inactive”. For the same compound, the Activity [9] was “inactive” and the Activity (Escherichia coli) was “inactive”.

For CCCCCc1cc(O)c(C=O)c(O)c1C, the Activity (Enterococcus faecalis [1]) was “inactive”, the Activity (Enterococcus faecium [2]) was “inactive” and the MIC (Candida albicans [11]) was 100 µM (≈ 22.2 µg/mL). The MIC (Bacillus subtilis) was 25 µM (≈ 5.56 µg/mL), the “log(activity)” value (Candida albicans [12]) was 3.5 and the MIC (Staphylococcus aureus [4]) was 50 µM (≈ 11.1 µg/mL). The Activity (Huh-7) was “Non-Toxic”, the Activity (Enterococcus faecalis [6]) was “inactive” and the MIC (Staphylococcus aureus [7]) was 50 µM (≈ 11.1 µg/mL). For the same compound, the Activity [13] was “Non-Toxic”, the “diameter of the inhibition zone (DIZ)” value (Saccharomyces cerevisiae [14]) was 18 mm and the Activity (Enterococcus faecium [8]) was “inactive”. For the same compound, the zone of inhibition at 1000 µM (Candida albicans [15]) was 8 mm, the Activity [9] was “inactive” and the Activity (Escherichia coli) was “inactive”. The Activity (THP-1) was “Non-Toxic”.

In the case of Cc1c(CCCC(O)CO)cc(O)c(C=O)c1O (stereo unspecified), the Activity (Enterococcus faecalis [1]) is reported as “inactive”, the Activity (Enterococcus faecium [2]) is reported as “inactive” and the Activity (Saccharomyces cerevisiae [3]) is reported as “inactive”. For the same compound, the Activity (Bacillus subtilis) was “inactive”, the Activity (Staphylococcus aureus [4]) was “inactive” and the Activity (Candida albicans [5]) was “inactive”. The Activity (Enterococcus faecalis [6]) was “inactive”, the Activity (Staphylococcus aureus [7]) was “inactive” and the Activity (Enterococcus faecium [8]) was “inactive”. For the same compound, the Activity [9] was “inactive” and the Activity (Escherichia coli) was “inactive”.
